Experimental data: ChEMBL document CHEMBL3804830, “Efficient synthesis of new antiproliferative steroidal hybrids using the molecular hybridization approach” (Eur J Med Chem, 2016)

Columns and labels:
[1] = Antiproliferative activity against human U87 cells assessed as cell growth inhibition after 72 hrs by MTT assay; format: functional, cell-based, U-87MG ATCC; settings: U-87 MG
SH-SY5Y = assay: Antiproliferative activity against human SH-SY5Y cells assessed as cell growth inhibition after 72 hrs by MTT assay; format: functional, cell-based
[2] = Antiproliferative activity against human MGC803 cells assessed as cell growth inhibition after 72 hrs by MTT assay; format: functional, cell-based; settings: MGC-803, 72 h
[3] = Antiproliferative activity against human EC109 cells assessed as cell growth inhibition after 72 hrs by MTT assay; format: functional, cell-based; settings: ECa-109, 72 h
MCF7 = assay: cells; settings: Homo sapiens, MCF7, 72 h
Description: Antiproliferative activity against human MCF7 cells assessed as cell growth inhibition after 72 hrs by MTT assay

Compound	IC50 [1]	IC50 (SH-SY5Y)	IC50 [2]	IC50 [3]	IC50 (MCF7)
C[C@]12CC[C@H](OC(=O)Cn3cc(CN4C(=O)C(=O)c5c(Cl)cccc54)nn3)CC1=CC[C@@H]1[C@@H]2CC[C@]2(C)C(=O)CC[C@@H]12	33.1 µM	18.5 µM	> 128 µM	124 µM	> 128 µM
O=c1c(F)cn(Cc2cn(Cc3ccccc3Cl)nn2)c(=O)n1Cc1cn(Cc2ccccc2Cl)nn1	> 128 µM	> 128 µM	> 128 µM	> 128 µM	> 128 µM
C[C@]12CC[C@H](OC(=O)Cn3cc(CN4C(=O)C(=O)c5cc(F)ccc54)nn3)CC1=CC[C@@H]1[C@@H]2CC[C@]2(C)C(=O)CC[C@@H]12	91.1 µM	9.25 µM	58.9 µM	> 128 µM	> 128 µM
C[C@]12CC[C@H](OC(=O)Cn3cc(COc4ccc(C(=O)/C=C/c5ccc([N+](=O)[O-])cc5)cc4)nn3)CC1=CC[C@@H]1[C@@H]2CC[C@]2(C)C(=O)CC[C@@H]12	> 128 µM	> 128 µM	99.5 µM	> 128 µM	> 128 µM
C[C@]12CC[C@H](OC(=O)Cn3cc(COc4ccc(C(=O)/C=C/c5ccc(Br)cc5)cc4)nn3)CC1=CC[C@@H]1[C@@H]2CC[C@]2(C)C(=O)CC[C@@H]12	> 128 µM	72.6 µM	> 128 µM	79.8 µM	112 µM
C[C@]12CC[C@H](OC(=O)Cn3cc(CN4C(=O)C(=O)c5cc(Br)ccc54)nn3)CC1=CC[C@@H]1[C@@H]2CC[C@]2(C)C(=O)CC[C@@H]12	39.2 µM	10.3 µM	32.5 µM	44.1 µM	> 128 µM
C[C@]12CC[C@H](OC(=O)Cn3cc(CN4C(=O)C(=O)c5cccc(Cl)c54)nn3)CC1=CC[C@@H]1[C@@H]2CC[C@]2(C)C(=O)CC[C@@H]12	20.8 µM	14.6 µM	8.74 µM	84.6 µM	13.3 µM
C[C@]12CC[C@H](OC(=O)Cn3cc(COc4cc(=O)oc5ccccc45)nn3)CC1=CC[C@@H]1[C@@H]2CC[C@]2(C)C(=O)CC[C@@H]12	40 µM	> 128 µM	> 128 µM	> 128 µM	> 128 µM
C[C@]12CC[C@H](OC(=O)Cn3cc(COc4ccc(Br)cc4)nn3)CC1=CC[C@@H]1[C@@H]2CC[C@]2(C)C(=O)CC[C@@H]12	30.1 µM	22.7 µM	48.2 µM	21 µM	93.2 µM
C[C@]12CC[C@H](OC(=O)Cn3cc(COc4ccc(C(=O)/C=C/c5ccc(Cl)c(Cl)c5)cc4)nn3)CC1=CC[C@@H]1[C@@H]2CC[C@]2(C)C(=O)CC[C@@H]12	> 128 µM	36.6 µM	> 128 µM	> 128 µM	> 128 µM
C[C@]12CC[C@H](OC(=O)Cn3cc(CN4C(=O)C(=O)c5c(Br)cccc54)nn3)CC1=CC[C@@H]1[C@@H]2CC[C@]2(C)C(=O)CC[C@@H]12	21.3 µM	> 128 µM	26.4 µM	78.4 µM	> 128 µM
C[C@]12CC[C@H](OC(=O)Cn3cc(COc4ccc5ccc(=O)oc5c4)nn3)CC1=CC[C@@H]1[C@@H]2CC[C@]2(C)C(=O)CC[C@@H]12	43.7 µM	54.9 µM	> 128 µM	> 128 µM	> 128 µM
C[C@]12CC[C@H](OC(=O)Cn3cc(COc4ccc(/C=C/C(=O)c5ccccc5)cc4)nn3)CC1=CC[C@@H]1[C@@H]2CC[C@]2(C)C(=O)CC[C@@H]12	> 128 µM	75 µM	> 128 µM	118 µM	> 128 µM
O=c1[nH]cc(F)c(=O)[nH]1 [FLUOROURACIL]	5.61 µM	3.26 µM	1.25 µM	3.17 µM	
COc1ccc(NCc2cn(CC(=O)O[C@H]3CC[C@@]4(C)C(=CC[C@@H]5[C@@H]4CC[C@]4(C)C(=O)CC[C@@H]54)C3)nn2)cc1	96.5 µM	69.8 µM	11.6 µM	24.7 µM	21.3 µM
Cc1ccc(/C=C/C(=O)c2ccc(OCc3cn(CC(=O)O[C@H]4CC[C@@]5(C)C(=CC[C@@H]6[C@@H]5CC[C@]5(C)C(=O)CC[C@@H]65)C4)nn3)cc2)cc1	> 128 µM	50.1 µM	> 128 µM	> 128 µM	73.3 µM
C[C@]12CC[C@H](OC(=O)Cn3cc(CNc4cccc([N+](=O)[O-])c4)nn3)CC1=CC[C@@H]1[C@@H]2CC[C@]2(C)C(=O)CC[C@@H]12	> 128 µM	> 128 µM	28.6 µM	55.4 µM	45.2 µM
C[C@]12CC[C@H](OC(=O)Cn3cc(COc4ccc(C(=O)/C=C/c5ccc(F)c(F)c5)cc4)nn3)CC1=CC[C@@H]1[C@@H]2CC[C@]2(C)C(=O)CC[C@@H]12	> 128 µM	42.1 µM	> 128 µM	> 128 µM	92.6 µM
C[C@]12CC[C@H](OC(=O)Cn3cc(CN4C(=O)C(=O)c5cc(Cl)ccc54)nn3)CC1=CC[C@@H]1[C@@H]2CC[C@]2(C)C(=O)CC[C@@H]12	47.9 µM	7.32 µM	57.8 µM	61.7 µM	> 128 µM
C[C@]12CC[C@H](OC(=O)Cn3cc(CN4C(=O)C(=O)c5ccccc54)nn3)CC1=CC[C@@H]1[C@@H]2CC[C@]2(C)C(=O)CC[C@@H]12	45.6 µM	8.62 µM	> 128 µM	> 128 µM	> 128 µM
C[C@]12CC[C@H](OC(=O)Cn3cc(CNc4ccc(Br)cc4)nn3)CC1=CC[C@@H]1[C@@H]2CC[C@]2(C)C(=O)CC[C@@H]12	86.7 µM	59.4 µM	19.4 µM	37.1 µM	27.6 µM
Cc1cc(=O)oc2cc(OCc3cn(CC(=O)O[C@H]4CC[C@@]5(C)C(=CC[C@@H]6[C@@H]5CC[C@]5(C)C(=O)CC[C@@H]65)C4)nn3)ccc12	47.4 µM	49.5 µM	> 128 µM	> 128 µM	> 128 µM
Cc1ccc(OCc2cn(CC(=O)O[C@H]3CC[C@@]4(C)C(=CC[C@@H]5[C@@H]4CC[C@]4(C)C(=O)CC[C@@H]54)C3)nn2)cc1	18.5 µM	26.9 µM	21.6 µM	23.9 µM	38.6 µM
C[C@]12CC[C@H](OC(=O)Cn3cc(Cn4cc(F)c(=O)n(Cc5cn(CC(=O)O[C@H]6CC[C@@]7(C)C(=CC[C@@H]8[C@@H]7CC[C@]7(C)C(=O)CC[C@@H]87)C6)nn5)c4=O)nn3)CC1=CC[C@@H]1[C@@H]2CC[C@]2(C)C(=O)CC[C@@H]12	> 128 µM	> 128 µM	> 128 µM	> 128 µM	> 128 µM
C[C@]12CC[C@H](OC(=O)Cn3cc(COc4ccc(/C=C/C(=O)c5ccc(F)cc5)cc4)nn3)CC1=CC[C@@H]1[C@@H]2CC[C@]2(C)C(=O)CC[C@@H]12	> 128 µM	46.5 µM	> 128 µM	> 128 µM	91.5 µM
C[C@]12CC[C@H](OC(=O)Cn3cc(COc4ccccc4[N+](=O)[O-])nn3)CC1=CC[C@@H]1[C@@H]2CC[C@]2(C)C(=O)CC[C@@H]12	> 128 µM	65 µM	51.3 µM	49.8 µM	45.1 µM
